Where two headings read alike, the source gives them in different places.
What was measured:
[1] = biological target: NA enzymatic activity of A/Georgia/20/2006 H274Y (Influenza A virus (H1N1), UniProt B1AGS8); assay: biochemical; type: biochemical
[2] = biological target: NA enzymatic activity of A/New Jersey/15/2007 (Influenza A virus (H1N1), UniProt D5F1R0, H275Y); type: biochemical, IFV A (H1N1); conditions: for R/S: A/New Jersey/15/2007, NI assay
[3] = biological target: NA enzymatic activity of A/St.Louis/758/09 (Influenza A virus, UniProt D0FH51, S5N); assay: biochemical; type: biochemical, IFV A (H1N1); conditions: for R/S: NI assay
[4] = system: A/Victoria/3/75 (H3N2) with A28T(HA) and R292K(NA) mutations; conditions: cited from earlier work

Structure (SMILES)	IC50 [1] [nM]	R/S [1]	R/S [2]	IC50 [3] [nM]	R/S ([3]; A/St.Louis/758/09)	Resistance [4] [fold]	IC50 ([1]; read-out: IC50) [nM]	IC50 ([2]; A/New Jersey/15/2007 reference virus, mean of triplicate analysis) [nM]	IC50 ([3]; A/St.Louis/758/09, mean of triplicate analysis, read-out: IC50) [nM]
CC(=O)N[C@H]1[C@H]([C@H](O)[C@H](O)CO)OC(C(=O)O)=C[C@@H]1N=C(N)N [zanamivir]	0.57	S	S	0.34	S	60			
CCC(CC)O[C@@H]1C=C(C(=O)O)C[C@H](N)[C@H]1NC(C)=O [oseltamivir, oseltamivir carboxylate]		R	R		R	3230	192	124	88.4

From PMC2770896, “Inhibition of Neuraminidase Inhibitor-Resistant Influenza Virus by DAS181, a Novel Sialidase Fusion Protein” (PLoS ONE, 2009)
